Test results: ChEMBL document CHEMBL1201862, “PubChem BioAssay data set” (2004)
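96-well plates; 48 h exposure; 5 concentrations. Endpoints by linear interpolation between flanking doses. Not reached: highest tested concentration assigned. GI50 is the concentration that inhibits growth by half.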 Active and inactive are the calls of the source. No stated cut-off is given here; in the data, active = GI50 up to about 1.1 µM and inactive = higher.

What was measured:
Assay in all cases: NCI anticancer screen, dose series, 48 h
[1] = test system: MDA-MB-435
[2] = test system: MOLT-4
[3] = test system: SNB-75
[4] = test system: U-251
[5] = test system: SK-MEL-5
[6] = test system: NCI-H522
[7] = test system: MCF7
[8] = test system: EKVX
[9] = test system: TK-10
[10] = test system: 786-0
[11] = test system: UO-31
[12] = test system: MDA-N
[13] = test system: NCI-H23
[14] = test system: HCT-15
[15] = test system: UACC-257
[16] = test system: RXF 393
[17] = test system: Malme-3M
[18] = test system: CCRF-CEM
[19] = test system: LOX IMVI
[20] = test system: MDA-MB-231

Compound | GI50 [1] | GI50 [2] | GI50 [3] | GI50 [4] | GI50 [5] | GI50 [6] | GI50 [7] | GI50 [8] | GI50 [9] | GI50 [10] | GI50 [11] | GI50 [12] | GI50 [13] | GI50 [14] [µM] | GI50 [15] | GI50 [16] | GI50 [17] | GI50 [18] | GI50 [19] | GI50 [20]
C=CCOC(C)(C)C1=CCC(C)CC1 (stereo not given) | > 100 µM (inactive) | > 100 µM (inactive) | > 100 µM (inactive) | > 100 µM (inactive) | > 100 µM (inactive) | > 100 µM (inactive) | > 100 µM (inactive) | > 100 µM (inactive) | > 100 µM (inactive) | > 100 µM (inactive) | > 100 µM (inactive) | > 100 µM (inactive) | > 100 µM (inactive) | > 100 | > 100 µM (inactive) | > 100 µM (inactive) | > 100 µM (inactive) |  |  | 
Cc1nc(-n2nc(-c3ccccc3)cc2-c2ccccc2)sc1C(=O)CC(=O)C(=O)Nc1ccc(O)cc1 |  | > 100 µM (inactive) | > 100 µM (inactive) | > 100 µM (inactive) |  | > 100 µM (inactive) |  | > 100 µM (inactive) | > 100 µM (inactive) | > 100 µM (inactive) | > 100 µM (inactive) |  | > 100 µM (inactive) | > 100 | > 100 µM (inactive) | > 100 µM (inactive) | > 100 µM (inactive) | > 100 µM (inactive) | > 100 µM (inactive) | 
Nc1nc(OCc2ccccc2)c2nc[nH]c2n1 [6-O-BENZYLGUANINE] |  | 67.6 µM (inactive) | 24.8 µM (inactive) | 87.7 µM (inactive) | 81.1 µM (inactive) | 49.4 µM (inactive) |  | 99.5 µM (inactive) | 47.1 µM (inactive) | 80.7 µM (inactive) | 25.9 µM (inactive) |  | 97.1 µM (inactive) | 57.1 | 91 µM (inactive) | 32.5 µM (inactive) | 87.9 µM (inactive) | 66.8 µM (inactive) | 64.6 µM (inactive) | 
O=C1CCSCCC(=O)Nc2ccccc2N1 | > 100 µM (inactive) | > 100 µM (inactive) |  | > 100 µM (inactive) | > 100 µM (inactive) | > 100 µM (inactive) |  | > 100 µM (inactive) | > 100 µM (inactive) | > 100 µM (inactive) | > 100 µM (inactive) | > 100 µM (inactive) | > 100 µM (inactive) | > 100 | > 100 µM (inactive) | > 100 µM (inactive) | > 100 µM (inactive) | > 100 µM (inactive) | > 100 µM (inactive) | > 100 µM (inactive)
N[C@H](COCc1ccccc1)c1ccccc1 |  | 16.7 µM (inactive) | 20 µM (inactive) | > 56 µM (inactive) | 20.1 µM (inactive) | 16.5 µM (inactive) |  | 33 µM (inactive) | 32.1 µM (inactive) | 29.3 µM (inactive) | 30.3 µM (inactive) |  | 23 µM (inactive) | > 50.5 | 28.1 µM (inactive) | 27.3 µM (inactive) | 33.4 µM (inactive) | 23.8 µM (inactive) | 29.3 µM (inactive) | 
O=[N+]([O-])c1ccc(C[P+](c2ccccc2)(c2ccccc2)c2ccccc2)cc1 |  | > 100 µM (inactive) | 35.9 µM (inactive) | 31.7 µM (inactive) | 57 µM (inactive) | 32.7 µM (inactive) |  | > 100 µM (inactive) | 56 µM (inactive) | > 100 µM (inactive) | > 100 µM (inactive) |  | 83.8 µM (inactive) | 81.5 | 16.1 µM (inactive) | 11.9 µM (inactive) | 37.8 µM (inactive) | 80 µM (inactive) | 42 µM (inactive) | 
CC#CC#C/C=C1\C=CC2(OC=CC2O)O1 (stereo not given) |  | 10.5 µM (inactive) | > 19.1 µM (inactive) | > 20.7 µM (inactive) | > 12.9 µM (inactive) | 5.65 µM (inactive) |  | > 9.86 µM (inactive) | > 23.3 µM (inactive) | > 16 µM (inactive) | 12.2 µM (inactive) |  | > 20.3 µM (inactive) | 7.4 | 16 µM (inactive) | 8.55 µM (inactive) | 10.4 µM (inactive) | > 11.3 µM (inactive) | 11.9 µM (inactive) | 
CCc1cccc(C(C)C)c1NC(=O)C(=O)C(Cc1nc2ccccc2nc1O)C(=O)OC (stereo not given) |  | > 100 µM (inactive) | 65.6 µM (inactive) | > 100 µM (inactive) | > 100 µM (inactive) | 98.4 µM (inactive) |  | 5.19 µM (inactive) | > 100 µM (inactive) | > 100 µM (inactive) | > 100 µM (inactive) |  | > 100 µM (inactive) | > 100 | > 100 µM (inactive) | > 100 µM (inactive) | > 100 µM (inactive) | 60.8 µM (inactive) | 45 µM (inactive) | 
C1OC1C1CO1 (stereo not given) |  | 3.28 µM (inactive) | 14.6 µM (inactive) | 20.1 µM (inactive) | 45.2 µM (inactive) | 33.6 µM (inactive) |  | > 100 µM (inactive) | > 100 µM (inactive) | 24.2 µM (inactive) | > 100 µM (inactive) |  | 18.1 µM (inactive) | > 100 | 27.9 µM (inactive) | 48.4 µM (inactive) | > 100 µM (inactive) | 3.34 µM (inactive) | 21.1 µM (inactive) | 
O=C1OC(=O)C2C1C1(c3ccccc3)OC2(c2ccccc2)c2c(Br)c(Br)c(Br)c(Br)c21 (stereo not given) |  | > 100 µM (inactive) | > 100 µM (inactive) | > 100 µM (inactive) | > 100 µM (inactive) | > 100 µM (inactive) |  | > 100 µM (inactive) | > 100 µM (inactive) | > 100 µM (inactive) | > 100 µM (inactive) |  | > 100 µM (inactive) | > 100 | > 100 µM (inactive) | 42.3 µM (inactive) | > 100 µM (inactive) | > 100 µM (inactive) | > 100 µM (inactive) | 
O=C1OC(c2ccccc2)=N/C1=C/NC(CO)C(=O)O (stereo not given) |  |  | > 100 µM (inactive) | > 100 µM (inactive) | > 100 µM (inactive) | > 100 µM (inactive) |  | > 100 µM (inactive) | > 100 µM (inactive) | > 100 µM (inactive) | > 100 µM (inactive) |  | > 100 µM (inactive) | > 100 | > 100 µM (inactive) | > 100 µM (inactive) | > 100 µM (inactive) | > 100 µM (inactive) | > 100 µM (inactive) | 
CCOCc1cc(=O)c2c(OC)cc3c(c2o1)CCC(C)(C)O3 |  | > 100 µM (inactive) | > 100 µM (inactive) | > 100 µM (inactive) | > 100 µM (inactive) | > 100 µM (inactive) |  | > 100 µM (inactive) | > 100 µM (inactive) | > 100 µM (inactive) | > 100 µM (inactive) |  | > 100 µM (inactive) | > 100 | > 100 µM (inactive) | > 100 µM (inactive) | > 100 µM (inactive) | > 100 µM (inactive) | > 100 µM (inactive) | 
CNCc1cc(OC)ccc1-c1ccc(OC)c(OC)c1OC |  | 99.3 µM (inactive) | 44.6 µM (inactive) | > 100 µM (inactive) | 64.3 µM (inactive) | > 100 µM (inactive) |  | > 74.8 µM (inactive) | > 100 µM (inactive) | > 100 µM (inactive) | > 88.1 µM (inactive) |  | > 100 µM (inactive) | > 100 | > 100 µM (inactive) | 69.7 µM (inactive) | > 100 µM (inactive) | > 92.9 µM (inactive) | > 96.8 µM (inactive) | 
Nc1cc(=O)n(-c2ccccc2)c(=S)n1-c1ccccc1 |  | > 100 µM (inactive) | > 100 µM (inactive) | > 100 µM (inactive) | > 100 µM (inactive) | > 100 µM (inactive) |  | > 100 µM (inactive) | > 100 µM (inactive) | > 100 µM (inactive) | > 100 µM (inactive) |  |  | > 100 | > 100 µM (inactive) | > 100 µM (inactive) | > 100 µM (inactive) | > 100 µM (inactive) | > 100 µM (inactive) | 
SCc1ccc(-c2ccc(CS)cc2)cc1 | 5.74 µM (inactive) | 2.14 µM (inactive) | 10.7 µM (inactive) | 15.1 µM (inactive) | 15.6 µM (inactive) | 17.8 µM (inactive) | 5.32 µM (inactive) | 26 µM (inactive) | 24.3 µM (inactive) | 23.2 µM (inactive) | 18.4 µM (inactive) |  | 14.4 µM (inactive) | 17.6 | 21.1 µM (inactive) | 16.8 µM (inactive) | 16.9 µM (inactive) | 1.43 µM (inactive) | 4 µM (inactive) | 11.2 µM (inactive)
Cc1ccc(-n2c3nc(=O)n(C)c(=O)c-3nc3ccccc32)cc1 |  | 14.9 µM (inactive) | 10.9 µM (inactive) | 15.1 µM (inactive) | 13.4 µM (inactive) | 12.6 µM (inactive) |  | 12.9 µM (inactive) | 27.2 µM (inactive) | 30.2 µM (inactive) | 40.2 µM (inactive) |  | 1.56 µM (inactive) | 8.18 | 12.8 µM (inactive) | 64.9 µM (inactive) | 13.8 µM (inactive) | 17.3 µM (inactive) | 20.4 µM (inactive) | 
O=c1[nH]c(Br)nc2c(Br)c[nH]c12 |  | > 100 µM (inactive) | > 100 µM (inactive) | > 100 µM (inactive) | > 100 µM (inactive) | 31.3 µM (inactive) |  | > 100 µM (inactive) | > 100 µM (inactive) | > 100 µM (inactive) | > 100 µM (inactive) |  | > 100 µM (inactive) | > 100 | > 100 µM (inactive) | > 100 µM (inactive) | > 100 µM (inactive) | > 100 µM (inactive) | > 100 µM (inactive) | 
